Assay results: ChEMBL document CHEMBL3885881, “DrugMatrix”

Species on record: Rattus norvegicus
Assay: DrugMatrix - Regimen: Daily Repeat
Format: toxicity, organism-based, Sprague-Dawley
Parameters: regimen Daily Repeat, gender Male, age 6-8 weeks
Settings: in vivo, po, route oral GAVAGE, vehicle 100 % WATER; for ABSOLUTE BASOPHIL / ABSOLUTE EOSINOPHIL / ABSOLUTE LYMPHOCYTE / ABSOLUTE MONOCYTE / ABSOLUTE SEGMENTED NEUTROPHIL / BASOPHIL / EOSINOPHIL / ERYTHROCYTE COUNT / HEMATOCRIT / HEMOGLOBIN / LEUKOCYTE COUNT / LYMPHOCYTE / MEAN CORPUSCULAR HEMOGLOBIN / MEAN CORPUSCULAR HEMOGLOBIN CONCENTRATION / MEAN CORPUSCULAR VOLUME / MONOCYTE / NEUTROPHIL / NUCLEATED RED BLOOD CELLS / PLATELET COUNT: tissue Blood; for ALANINE AMINOTRANSFERASE / ALBUMIN / ALKALINE PHOSPHATASE / ASPARTATE AMINOTRANSFERASE / BLOOD UREA NITROGEN / CARBON DIOXIDE / CHLORIDE / CHOLESTEROL / CREATINE PHOSPHOKINASE / CREATININE / GLUCOSE / LACTATE DEHYDROGENASE / LIPASE / PHOSPHORUS / POTASSIUM / SODIUM / TOTAL BILIRUBIN / TOTAL PROTEIN / URIC ACID: tissue Plasma
[1] = 100 mg/kg, 120 h, dose level Low, time 5 day
[2] = 750 mg/kg, 72 h, dose level High, time 3 day
[3] = 750 mg/kg, 120 h, dose level High, time 5 day

## NC(=O)c1cccnc1 [NIACINAMIDE]
[1]
  ABSOLUTE BASOPHIL: 0 CELLS/uL
  ABSOLUTE EOSINOPHIL: 0 CELLS/uL
  ABSOLUTE LYMPHOCYTE: 16541 CELLS/uL
  ABSOLUTE MONOCYTE: 560 CELLS/uL
  ABSOLUTE SEGMENTED NEUTROPHIL: 1799 CELLS/uL
  BASOPHIL: 0%
  EOSINOPHIL: 0%
  ERYTHROCYTE COUNT: 5.76 x10E6/uL
  HEMATOCRIT: 36.2%
  HEMOGLOBIN: 13.57 G/DL
  LEUKOCYTE COUNT: 18.9 x10E3/uL
  LYMPHOCYTE: 87.67%
  MEAN CORPUSCULAR HEMOGLOBIN: 23.57 pg
  MEAN CORPUSCULAR HEMOGLOBIN CONCENTRATION: 37.47 G/DL
  MEAN CORPUSCULAR VOLUME: 62.9 fL
  MONOCYTE: 3%
  NEUTROPHIL: 9.33%
  NUCLEATED RED BLOOD CELLS: 0 /100WBC
  PLATELET COUNT: 1257.67 x10E3/uL
  ALANINE AMINOTRANSFERASE: 69.67 u/L
  ALBUMIN: 4.27 G/DL
  ALKALINE PHOSPHATASE: 376.67 u/L
  ASPARTATE AMINOTRANSFERASE: 99.33 u/L
  BLOOD UREA NITROGEN: 17 mg/dL
  CARBON DIOXIDE: 24.33 mmol/L
  CHLORIDE: 102.67 MEQ/L
  CHOLESTEROL: 67.67 mg/dL
  CREATINE PHOSPHOKINASE: 270.33 u/L
  CREATININE: 0.34 mg/dL
  GLUCOSE: 140.67 mg/dL
  LACTATE DEHYDROGENASE: 278 u/L
  LIPASE: 10.67 u/L
  PHOSPHORUS: 13.13 mg/dL
  POTASSIUM: 6.68 MEQ/L
  SODIUM: 145.57 MEQ/L
  TOTAL BILIRUBIN: 0.2 mg/dL
  TOTAL PROTEIN: 6.03 G/DL
  URIC ACID: 1.6 mg/dL
[2]
  ABSOLUTE BASOPHIL: 0 CELLS/uL
  ABSOLUTE EOSINOPHIL: 108.33 CELLS/uL
  ABSOLUTE LYMPHOCYTE: 16413 CELLS/uL
  ABSOLUTE MONOCYTE: 47.67 CELLS/uL
  ABSOLUTE SEGMENTED NEUTROPHIL: 1431 CELLS/uL
  BASOPHIL: 0%
  EOSINOPHIL: 0.67%
  ERYTHROCYTE COUNT: 6.31 x10E6/uL
  HEMATOCRIT: 40.5%
  HEMOGLOBIN: 14.57 G/DL
  LEUKOCYTE COUNT: 18 x10E3/uL
  LYMPHOCYTE: 91%
  MEAN CORPUSCULAR HEMOGLOBIN: 23.2 pg
  MEAN CORPUSCULAR HEMOGLOBIN CONCENTRATION: 36 G/DL
  MEAN CORPUSCULAR VOLUME: 64.37 fL
  MONOCYTE: 0.33%
  NEUTROPHIL: 8%
  NUCLEATED RED BLOOD CELLS: 0 /100WBC
  PLATELET COUNT: 1228.67 x10E3/uL
  ALANINE AMINOTRANSFERASE: 84 u/L
  ALBUMIN: 4.57 G/DL
  ALKALINE PHOSPHATASE: 402 u/L
  ASPARTATE AMINOTRANSFERASE: 97.33 u/L
  BLOOD UREA NITROGEN: 17 mg/dL
  CARBON DIOXIDE: 27.33 mmol/L
  CHLORIDE: 101 MEQ/L
  CHOLESTEROL: 85 mg/dL
  CREATINE PHOSPHOKINASE: 304.67 u/L
  CREATININE: 0.23 mg/dL
  GLUCOSE: 150.67 mg/dL
  LACTATE DEHYDROGENASE: 174.67 u/L
  LIPASE: 11 u/L
  PHOSPHORUS: 10.23 mg/dL
  POTASSIUM: 6.7 MEQ/L
  SODIUM: 143.83 MEQ/L
  TOTAL BILIRUBIN: 0.2 mg/dL
  TOTAL PROTEIN: 6.17 G/DL
  URIC ACID: 1.8 mg/dL
[3]
  ABSOLUTE BASOPHIL: 0 CELLS/uL
  ABSOLUTE EOSINOPHIL: 45.33 CELLS/uL
  ABSOLUTE LYMPHOCYTE: 12211.67 CELLS/uL
  ABSOLUTE MONOCYTE: 352 CELLS/uL
  ABSOLUTE SEGMENTED NEUTROPHIL: 1824.33 CELLS/uL
  BASOPHIL: 0%
  EOSINOPHIL: 0.33%
  ERYTHROCYTE COUNT: 5.73 x10E6/uL
  HEMATOCRIT: 36.63%
  HEMOGLOBIN: 13.6 G/DL
  LEUKOCYTE COUNT: 14.43 x10E3/uL
  LYMPHOCYTE: 85.33%
  MEAN CORPUSCULAR HEMOGLOBIN: 23.77 pg
  MEAN CORPUSCULAR HEMOGLOBIN CONCENTRATION: 37.13 G/DL
  MEAN CORPUSCULAR VOLUME: 63.93 fL
  MONOCYTE: 2.33%
  NEUTROPHIL: 12%
  NUCLEATED RED BLOOD CELLS: 0 /100WBC
  PLATELET COUNT: 1227.33 x10E3/uL
  ALANINE AMINOTRANSFERASE: 71.67 u/L
  ALBUMIN: 4.53 G/DL
  ALKALINE PHOSPHATASE: 405.67 u/L
  ASPARTATE AMINOTRANSFERASE: 97 u/L
  BLOOD UREA NITROGEN: 18 mg/dL
  CARBON DIOXIDE: 28.67 mmol/L
  CHLORIDE: 101.67 MEQ/L
  CHOLESTEROL: 92 mg/dL
  CREATINE PHOSPHOKINASE: 216.33 u/L
  CREATININE: 0.2 mg/dL
  GLUCOSE: 160.33 mg/dL
  LACTATE DEHYDROGENASE: 82 u/L
  LIPASE: 11 u/L
  PHOSPHORUS: 10.6 mg/dL
  POTASSIUM: 5.82 MEQ/L
  SODIUM: 147.1 MEQ/L
  TOTAL BILIRUBIN: 0.2 mg/dL
  TOTAL PROTEIN: 6.33 G/DL
  URIC ACID: 1.3 mg/dL
